The results in this text go back to patent US10105367B2, “Therapeutic thiophene-, furan-, and pyridine-fused azolopyrimidin-5-(6h)-ones” (Dart Neuroscience (Cayman) Ltd., priority 2012, dated 2018).

The target of one experiment is human PDE1B (Homo sapiens (Human), UniProt Q01064). The experiment is described as follows: PDE1B inhibitory assay (IMAP TR-FRET). As to conditions: PDE1B pIC50, negative log of half-maximal molar inhibitory concentration; 200 nM FAM-cAMP, Calmodulin, CaCl2. Background: TR-FRET usually uses a lanthanide donor and a delayed reading to cut background.
Procedure: PDE1B inhibition was determined by an IMAP TR-FRET assay.
After a brief centrifugation, the plates were incubated for 30 minutes at room temperature. The assay was terminated by adding 5 μL IMAP binding reagent/Tb complex (Molecular Devices, Sunnyvale, Calif.) to each well.
Plates were incubated 1 hour at room temperature and read on a Viewlux multimode plate reader (Perkin Elmer). The instrument was set to excite using the DUG11 filter and measure using 490/10 nm and 520/10 nm filters. Ratios of acceptor and donor were then calculated.
For IC50 calculations, the values of % efficacy versus a series of compound concentrations were then plotted using non-linear regression analysis of sigmoidal dose-response curves generated with the equation Y=B+(T−B)/1+10((Log EC50−X)×Hill Slope), where Y=percent activity, B=minimum percent efficacy, T=maximum percent efficacy, X=logarithm of compound and Hill Slope=slope factor or Hill coefficient. The IC50 value was determined by the concentration causing a half-maximal percent efficacy.
What is called IC50 is the concentration that gives 50% inhibition. A higher IC50 goes with weaker potency. As for `COc1ccc(Cn2c(=O)n3ncnc3c3cc(CN4C[C@@H](C)O[C@@H](C)C4)cnc32)cc1F` [Example 276], the IC50 was in the range of 100 to 1000 nM.
Still for that read-out and setting: the value for `C[C@@H]1CN(Cc2cnc3c(c2)c2ncnn2c(=O)n3Cc2ccc(F)c(Br)c2)C[C@H](C)O1` [Example 278] was 100 to 1000 nM; that for `Cc1ccccc1Cn1c(=O)n2ncnc2c2cc(CN3C[C@@H](C)O[C@@H](C)C3)cnc21` [Example 283] was 1000 to 10000 nM.
Consider `C[C@@H]1CN(Cc2cnc3c(c2)c2ncnn2c(=O)n3Cc2cccc(I)c2)C[C@H](C)O1` [Example 284], for which the IC50 lay in the range of 100 to 1000 nM.
On the same count and under the same terms, the value for `C[C@@H]1CN(Cc2cnc3c(c2)c2ncnn2c(=O)n3Cc2cc(F)cc(F)c2)C[C@H](C)O1` [Example 285] was 1000 to 10000 nM; that for `COc1ccc(Cn2c(=O)n3ncnc3c3cc(CN4C[C@@H](C)O[C@@H](C)C4)cnc32)c(Br)c1` [Example 286] was 1000 to 10000 nM; that for `C[C@@H]1CN(Cc2cnc3c(c2)c2ncnn2c(=O)n3Cc2ccc(OC(F)F)cc2F)C[C@H](C)O1` [Example 290] was 100 to 1000 nM.
`COc1c(F)cc(Cn2c(=O)n3ncnc3c3cc(CN4C[C@@H](C)O[C@@H](C)C4)cnc32)cc1F` [Example 291]: the IC50 fell in the range of 100 to 1000 nM.
`COc1ccc(Cn2c(=O)n3ncnc3c3cc(CN4C[C@@H](C)O[C@@H](C)C4)cnc32)c(F)c1F` [Example 292] yielded an IC50 of 100 to 1000 nM.
Still for that read-out and setting: the result for `C[C@@H]1CN(Cc2cnc3c(c2)c2ncnn2c(=O)n3Cc2ccc(F)c(Cl)c2)C[C@H](C)O1` [Example 294] reads 100 to 1000 nM.
Take `C[C@@H]1CN(Cc2cnc3c(c2)c2ncnn2c(=O)n3Cc2ccc(Cl)c(Cl)c2)C[C@H](C)O1` [Example 295]: the IC50 is 100 to 1000 nM.
Turning to `COc1ccc(Cn2c(=O)n3ncnc3c3cc(CN4C[C@@H](C)O[C@@H](C)C4)cnc32)c(Cl)c1` [Example 296], the IC50 lay in the range of 100 to 1000 nM.
Still for that read-out and setting: the value for `C[C@@H]1CN(Cc2cnc3c(c2)c2ncnn2c(=O)n3Cc2ccc(Cl)c(F)c2)C[C@H](C)O1` [Example 298] was 100 to 1000 nM; that for `C[C@@H]1CN(Cc2cnc3c(c2)c2ncnn2c(=O)n3Cc2cc(F)cc(Cl)c2)C[C@H](C)O1` [Example 299] was 1000 to 10000 nM.
Compound `CCOc1ccc(Cn2c(=O)n3ncnc3c3cc(CN4C[C@@H](C)O[C@@H](C)C4)cnc32)cc1` [Example 301] yielded an IC50 of 100 to 1000 nM.
`C[C@@H]1CN(Cc2cnc3c(c2)c2ncnn2c(=O)n3Cc2ccc(F)c(F)c2)C[C@H](C)O1` [Example 302] came in with an IC50 of 100 to 1000 nM.
The compound `CSc1ccc(Cn2c(=O)n3ncnc3c3cc(CN4C[C@@H](C)O[C@@H](C)C4)cnc32)cc1` [Example 303] had an IC50 of 100 to 1000 nM.

Staying with this experiment, now noted: negative log of half-maximal molar inhibitory concentration; 200 nM FAM-cAMP, Calmodulin, CaCl2.
On to `COc1ccc(Cn2c(=O)n3ncnc3c3cc(CN4C[C@@H](C)O[C@@H](C)C4)cnc32)c(F)c1` [Example 277], for which the “PDE1B pIC50” value is above 7.
For the compound `C[C@@H]1CN(Cc2cnc3c(c2)c2ncnn2c(=O)n3Cc2ccc(C#N)cc2)C[C@H](C)O1` [Example 279], the “PDE1B pIC50” value was below 5.
Still for that read-out and setting: the result for `C[C@@H]1CN(Cc2cnc3c(c2)c2ncnn2c(=O)n3Cc2ccc(C(C)(C)C)cc2)C[C@H](C)O1` [Example 280] reads below 5.
On the same count and under the same terms, the value for `C[C@@H]1CN(Cc2cnc3c(c2)c2ncnn2c(=O)n3Cc2cccc(C#N)c2)C[C@H](C)O1` [Example 281] was below 5.
Same read-out and setting: the result for `C[C@@H]1CN(Cc2cnc3c(c2)c2ncnn2c(=O)n3Cc2ccc(S(C)(=O)=O)cc2)C[C@H](C)O1` [Example 282] reads below 5; that for `COc1cc(F)c(Cn2c(=O)n3ncnc3c3cc(CN4C[C@@H](C)O[C@@H](C)C4)cnc32)c(F)c1` [Example 287], above 7; that for `C[C@@H]1CN(Cc2cnc3c(c2)c2ncnn2c(=O)n3Cc2ccc3cnn(C)c3c2)C[C@H](C)O1` [Example 288], below 5.
As for `C[C@@H]1CN(Cc2cnc3c(c2)c2ncnn2c(=O)n3Cc2ccc(-n3cccn3)cc2)C[C@H](C)O1` [Example 289], the “PDE1B pIC50” value is below 5.
On the same count and under the same terms, the result for `C[C@@H]1CN(Cc2cnc3c(c2)c2ncnn2c(=O)n3Cc2ccccc2SC(F)(F)F)C[C@H](C)O1` [Example 293] reads below 5.
On the same count and under the same terms, the result for `C[C@@H]1CN(Cc2cnc3c(c2)c2ncnn2c(=O)n3Cc2ccccc2OC(F)F)C[C@H](C)O1` [Example 297] reads below 5.
Same read-out and setting: the result for `C[C@@H]1CN(Cc2cnc3c(c2)c2ncnn2c(=O)n3Cc2ccc(N3CCCC3=O)cc2)C[C@H](C)O1` [Example 300] reads below 5.
